Patent publication US20040228906A1 (priority 2001, published 2004)
Like-named read-outs stand apart in the source and are kept apart here.

Columns and labels:
[1] = cited from earlier work
[2] = cited from earlier work; remark: listed apart in the source
[3] = system: bladder or urethra; settings: epidural application, 4 μg/kg (Batra) or 2 μg/kg (Drenger, dogs); cited from earlier work
[4] = system: bladder function; settings: rat model with rhythmic bladder contraction; cited from earlier work
[5] = system: bladder overactivity induced by oxyhemoglobine; experiment: Cystometry with wake rats damaged by oxyhemoglobin (urge incontinence model); format: in vivo, Sprague-Dawley rat
[6] = after use of the substances, OxyHb 2.5 × 10^−4M, buprenorphine 0.005 mg/kg iv where given
[7] = before use of the substances, OxyHb 2.5 × 10^−4M, buprenorphine 0.005 mg/kg iv where given
[8] = change compared to the pre-basis

21-cyclopropyl-7-α-[(S)-1-hydroxy-1,2,2-trimethylpropyl]-6,14-endo-ethano-6,7,8,14-tetrahydrooripavine [buprenorphine]
plasma concentration ([1]; about 5 minutes after intravenous 0.3 mg): about 9 ng/ml
plasma concentration ([1]; about 3 hours after intramuscular 0.3-mg dose): about 0.4 ng/ml
time of mean peak plasma concentration ([1]; intravenous single dose of about 0.3 mg): ≤ 2 min
Cmax ([2]; 0.4 mg sublingual dose): 0.50 ng/mL
Cmax ([2]; 0.8 mg sublingual dose): 1.04 ng/mL
influence on the function of bladder or urethra [3]: does not have a significant influence

COc1cccc(C2(O)CCCCC2CN(C)C)c1 (stereo not shown) [tramadol]
effect on bladder function [4]: positive effect

OxyHb
ICI inter-contraction interval, after (a) [5, 6]: a: 3.33 ± 0.18 min
MP Micturition pressure, after (a) [5, 6]: a: 97 ± 5 cm H2O
TP threshold pressure, after (a) [5, 6]: a: 9.84 ± 1.56 cm H2O
bladder capacity, after (a) [5, 6]: a: 0.65 ± 0.06 ml
ICI inter-contraction interval, before (b) [5, 7]: b: 4.96 ± 0.33 min
MP Micturition pressure, before (b) [5, 7]: b: 59 ± 8 cm H2O
TP threshold pressure, before (b) [5, 7]: b: 8.72 ± 1.31 cm H2O
bladder capacity, before (b) [5, 7]: b: 0.92 ± 0.10 ml
ICI inter-contraction interval, Diff. [5, 8]: Diff.: −32.9%
MP Micturition pressure, Diff. [5, 8]: Dif.: +64.4%
TP threshold pressure, Diff. [5, 8]: Diff.: +12.8%
bladder capacity, Diff. [5, 8]: Diff.: −29.3%
